# Measurements taken from patent US20210139507A1, “FUSED PYRIDINES WHICH ACT AS INHIBITORS OF H PGDS” (GlaxoSmithKline Intellectual Property Development Limited, priority 2017, published 2021).
# Target: T1, hematopoietic prostaglandin D synthase (H-PGDS) (Homo sapiens, UniProt O60760)
# T1 construct: Full length human H-PGDS cDNA (Invitrogen Ultimate ORF IOH13026) was amplified by PCR; 6-His (N); TEV protease cleavage site (N); made in house; host or cells: E. coli BL21 (DE3*), vector pET22b+
# Test: H-PGDS RapidFire High Throughput Mass Spectrometry Assay
# Format: biochemical
# Conditions: conversion of PGH2 to PGD2 by human H-PGDS, 10 nM enzyme; for IC50: mean pIC50, read-out: Potency Range (mean pIC50) (converted)
# Procedure: The H-PGDS RapidFire™ mass spectrometric assay monitors conversion of prostaglandin H2 (PGH2) to prostaglandin D2 (PGD2) by hematopoietic prostaglandin D synthase (H-PGDS). In the assay format described here, the substrate (PGH2) is formed in situ by the action of cyclooxygenase-2 on arachidonic acid. This first step is set up to be fast, and generates a burst of PGH2 at ˜10 μM. The PGH2 is then further converted to PGD2 by the H-PGDS enzyme. […] Plates are then read on the RapidFire™ high throughput solid phase extraction system (Agilent) which incorporates a solid phase extraction step coupled to a triple quadrupole mass spectrometer (AB SCIEX). Relative levels of PGD2 and PGF2α, which acts as a surrogate for substrate, are measured and a percent conversion calculated. Inhibitors are characterized as compounds which lower the conversion of PGH2 to PGD2.
# Full length human H-PGDS cDNA (Invitrogen Ultimate ORF IOH13026) was amplified by PCR with the addition of a 5′ 6-His tag and TEV protease cleavage site. The PCR product was digested with NdeI and XhoI and ligated into pET22b+ (Merck Novagen®). Expression was carried out in E. coli strain BL21 (DE3*) using auto-induction Overnight Express™ Instant TB medium (Merck Novagen®) supplemented with 1% glycerol. The culture was first grown at 37° C. and the temperature was reduced to 25° C. when OD600 reached 2.0. Cells were harvested by centrifugation after a further 18 hours. 10 g of E. coli cell pellet was suspended to a total volume of 80 mL in lysis buffer (20 mM Tris-Cl pH 7.5, 300 mM NaCl, 20 mM imidazole, 5 mM β-mercaptoethanol, 10% glycerol). 1 mg/mL protease inhibitors (Protease Inhibitor Cocktail Set III, Merck Calbiochem®) and 1 mg/mL lysozyme were added to the cell suspension. The suspension was then sonicated for 5 min (Ultrasonic Processor VCX 750, Cole-Parmer Instrument Co.) with a micro probe (50% amplitude, 10 sec on/off) and then centrifuged at 100,000 g for 90 minutes (at 4° C.). The supernatant was loaded onto a Ni-NTA HiTrap column (5 mL, GE Healthcare, pre-equilibrated in lysis buffer). The column was washed with 10 column volumes of lysis buffer and eluted with lysis buffer containing 500 mM imidazole. The pooled protein peak fractions were concentrated using a 10 kDa centrifugal filter at 3500 g and 4° C. (Amicon Ultra-15 centrifugal filter unit with Ultracel-10 membrane from Millipore). Further purification of the concentrated protein was carried out using gel filtration chromatography on a HiLoad 26/600 Superdex75 preparative grade column (GE Healthcare Life Sciences) using 50 mM Tris pH 7.5, 50 mM NaCl, 1 mM dithiothreitol, 1 mM MgCl2. Fractions containing the protein were pooled, concentrated as described above, and stored at −80° C.
# The full length human COX-2 gene (accession number L15326) was amplified by PCR to generate an EcoRI-Hindi 11 fragment containing an in-frame FLAG tag. This was subcloned into pFastBac 1 (Invitrogen). The COX-2 FLAG plasmid was recombined into the baculovirus genome according to the BAC-to-BAC protocol described by Invitrogen. Transfection into Spodoptera frugiperda (Sf9) insect cells was performed using Cellfectin (Invitrogen), according to the manufacturer's protocol. Super Sf9 cells were cultured in EX420 media (SAFC Biosciences) to a density of approximately 1.5×10^6 cells/mL within a wave bioreactor. Recombinant virus was added at a Multiplicity of Infection (MOI) of 5 and the culture was allowed to continue for 3 days. Cells were harvested using a continuous feed centrifuge run at 2500 g at a rate of approximately 2 L/min with cooling. The resultant cell slurry was re-centrifuged in pots (2500 g, 20 min, 4° C.) and the cell paste was stored at −80° C. 342 g of cell paste was re-suspended to a final volume of 1600 mL in a buffer of 20 mM Tris-Cl pH 7.4, 150 mM NaCl, 0.1 mM EDTA, 1.3% w/v n-octyl-β-D-glucopyranoside containing 20 Complete EDTA-free Protease Inhibitor Cocktail tablets (Roche Applied Science). […]
# T1 sequence (O60760 whole entry): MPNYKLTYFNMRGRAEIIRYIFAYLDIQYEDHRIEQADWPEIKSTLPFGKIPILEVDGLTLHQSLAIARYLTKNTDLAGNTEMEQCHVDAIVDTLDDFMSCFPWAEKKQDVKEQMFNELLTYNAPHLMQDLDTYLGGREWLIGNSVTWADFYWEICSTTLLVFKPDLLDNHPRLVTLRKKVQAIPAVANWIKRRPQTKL
Compound,Potency Range (mean pIC50),IC50 [nM]
"2-Cyclopropyl-N-((3R,6S)-6-(2-hydroxypropan-2-yl)tetrahydro-2H-pyran-3-yl)thiazolo[4,5-b]pyridine-6-carboxamide and 2-Cyclopropyl-N-((3S,6R)-6-(2-hydroxypropan-2-yl)tetrahydro-2H-pyran-3-yl)thiazolo[4,5-b]pyridine-6-carboxamide [Example 24]",** (** = pIC50 6.0-7.0),
"CS(=O)(=O)CC(O)[C@H]1CC[C@H](NC(=O)c2cnc3nc(C4CC4)sc3c2)CC1 (mixture of isomers) [Example 28, Racemic 2-cyclopropyl-N-(trans-4-(1-hydroxy-2-(methylsulfonyl)ethyl)cyclohexyl)thiazolo[4,5-b]pyridine-6-carboxamide]",,100 to 1000
"O=C(N[C@H]1CC[C@H](C(O)C(F)(F)F)CC1)c1cnc2nc(C3CC3)sc2c1 (mixture of isomers) [Example 32, Racemic 2-Cyclopropyl-N-(trans-4-(2,2,2-trifluoro-1-hydroxyethyl)cyclohexyl)thiazolo[4,5-b]pyridine-6-carboxamide]",,10 to 79.4
"CC(C)(O)C1CC2(CC(NC(=O)c3cnc4nc(C5CC5)sc4c3)C2)C1 (racemic) [Example 15, (Racemic)-2-cyclopropyl-N-(6-(2-hydroxypropan-2-yl)spiro[3.3]heptan-2-yl)thiazolo[4,5-b]pyridine-6-carboxamide]",,10 to 79.4
"O=C(NC1C[C@H](O)C[C@@H](O)C1)c1cnc2nc(C3CC3)sc2c1 (mixture of isomers) [Example 41, Racemic 2-cyclopropyl-N-((3S,5S)-3,5-dihydroxycyclohexyl)thiazolo[4,5-b]pyridine-6-carboxamide]",,100 to 1000
"CC(N[C@H]1CC[C@H](NC(=O)c2cnc3nc(C4CC4)sc3c2)CC1)C(F)F (relative stereo) [Example 23, 2-Cyclopropyl-N-(trans-4-((1,1-difluoropropan-2-yl)amino)cyclohexyl)thiazolo[4,5-b]pyridine-6-carboxamide]",,100 to 1000
"O=C(N[C@H]1CC[C@H](C(O)C2CC2)CC1)c1cnc2nc(C3CC3)sc2c1 (relative stereo) [Example 26, 2-Cyclopropyl-N-(trans-4-(cyclopropyl(hydroxy)methyl)cyclohexyl)thiazolo[4,5-b]pyridine-6-carboxamide]",,10 to 79.4
"CC(C)(O)[C@H]1CC2(C[C@H](NC(=O)c3cnc4nc(C5CC5)sc4c3)C2)C1 (single isomer, unassigned) [Example 42]",,10 to 79.4
CC(C)(O)[C@H]1CC[C@H](NC(=O)c2cnc3cc(Br)sc3c2)CC1 [Example 1],,100 to 1000
CC(C)(O)[C@H]1CC[C@H](NC(=O)c2cnc3cc(C4CC4)sc3c2)CC1 [Example 2],,10 to 79.4
C[C@]1(O)C[C@@H](NC(=O)c2cnc3cc(Br)sc3c2)C1 [Example 3],,1260 to 10000
C[C@]1(O)C[C@@H](NC(=O)c2cnc3cc(C4CC4)sc3c2)C1 [Example 4],,1260 to 10000
CC(C)Nc1nc2ncc(C(=O)N[C@H]3CC[C@H](C(C)(C)O)CC3)cc2s1 [Example 5],,100 to 1000
CC(C)N(C)c1nc2ncc(C(=O)N[C@H]3CC[C@H](C(C)(C)O)CC3)cc2s1 [Example 6],,10 to 79.4
CNc1nc2ncc(C(=O)N[C@H]3CC[C@H](C(C)(C)O)CC3)cc2s1 [Example 7],,100 to 1000
CN(C)c1nc2ncc(C(=O)N[C@H]3CC[C@H](C(C)(C)O)CC3)cc2s1 [Example 9],,10 to 79.4
"CC(C)(O)C12CC(NC(=O)c3cnc4cc(Br)sc4c3)(C1)C2 [Example 11, 2-Bromo-N-(3-(2-hydroxypropan-2-yl)bicyclo[1.1.1]pentan-1-yl)thieno[3,2-b]pyridine-6-carboxamide]",,100 to 1000
"CC(C)(O)C12CC(NC(=O)c3cnc4cc(C5CC5)sc4c3)(C1)C2 [Example 12, 2-Cyclopropyl-N-(3-(2-hydroxypropan-2-yl)bicyclo[1.1.1]pentan-1-yl)thieno[3,2-b]pyridine-6-carboxamide]",,10 to 79.4
"CC(C)(O)C12CC(NC(=O)c3cnc4nc(C5CC5)sc4c3)(C1)C2 [Example 13, 2-Cyclopropyl-N-(3-(2-hydroxypropan-2-yl)bicyclo[1.1.1]pentan-1-yl)thiazolo[4,5-b]pyridine-6-carboxamide]",,100 to 1000
"CC(C)(O)[C@H]1CC[C@H](NC(=O)c2cnc3nc(C4CCC4)sc3c2)CC1 [Example 14, 2-Cyclobutyl-N-((trans)-4-(2-hydroxypropan-2-yl)cyclohexyl)thiazolo[4,5-b]pyridine-6-carboxamide]",,10 to 79.4
"O=C(N[C@H]1CC[C@H](O)CC1)c1cnc2nc(C3CC3)sc2c1 [Example 16, 2-Cyclopropyl-N-((trans)-4-hydroxycyclohexyl)thiazolo[4,5-b]pyridine-6-carboxamide]",,100 to 1000
"C[C@]1(O)CC[C@H](NC(=O)c2cnc3nc(C4CC4)sc3c2)CC1 [Example 17, 2-Cyclopropyl-N-((trans)-4-hydroxy-4-methylcyclohexyl)thiazolo[4,5-b]pyridine-6-carboxamide]",,1260 to 10000
"O=C(N[C@H]1CC[C@H](OCCO)CC1)c1cnc2nc(C3CC3)sc2c1 [Example 18, 2-Cyclopropyl-N-((trans)-4-(2-hydroxyethoxy)cyclohexyl)thiazolo[4,5-b]pyridine-6-carboxamide]",,100 to 1000
"O=C(N[C@H]1CCNC1=O)c1cnc2nc(C3CC3)sc2c1 [Example 19, (S)-2-Cyclopropyl-N-(2-oxopyrrolidin-3-yl)thiazolo[4,5-b]pyridine-6-carboxamide]",,100 to 1000
"O=C(N[C@H]1CC[C@H](CO)CC1)c1cnc2nc(C3CC3)sc2c1 [Example 20, 2-Cyclopropyl-N-((trans)-4-(hydroxymethyl)cyclohexyl)thiazolo[4,5-b]pyridine-6-carboxamide]",,100 to 1000
"O=C(N[C@H]1CC[C@H](N2CC(F)(F)C2)CC1)c1cnc2nc(C3CC3)sc2c1 [Example 21, 2-Cyclopropyl-N-((trans)-4-(3,3-difluoroazetidin-1-yl)cyclohexyl)thiazolo[4,5-b]pyridine-6-carboxamide]",,100 to 1000
"CC(C)(O)[C@H]1C[C@H](NC(=O)c2cnc3nc(C4CC4)sc3c2)C1 [Example 22, 2-Cyclopropyl-N-((trans)-3-(2-hydroxypropan-2-yl)cyclobutyl)thiazolo[4,5-b]pyridine-6-carboxamide]",,100 to 1000
"CC(C)(F)c1nc2ncc(C(=O)N[C@H]3CC[C@H](C(C)(C)O)CC3)cc2s1 [Example 25, 2-(2-Fluoropropan-2-yl)-N-(trans-4-(2-hydroxypropan-2-yl)cyclohexyl)thiazolo[4,5-b]pyridine-6-carboxamide]",,100 to 1000
"CC(C)(C)c1nc2ncc(C(=O)N[C@H]3CC[C@H](C(C)(C)O)CC3)cc2s1 [Example 27, 2-(tert-Butyl)-N-(trans-4-(2-hydroxypropan-2-yl)cyclohexyl)thiazolo[4,5-b]pyridine-6-carboxamide]",,100 to 1000
"CC(C)(O)[C@H]1CC[C@H](NC(=O)c2cnc3nc(N4CCC4)sc3c2)CC1 [Example 29, 2-(Azetidin-1-yl)-N-(trans-4-(2-hydroxypropan-2-yl)cyclohexyl)thiazolo[4,5-b]pyridine-6-carboxamide]",,100 to 1000
